From US10906894B2, “Compounds containing benzo[d][1,3]oxathiole, benzo[d][1,3]oxathiole 3-oxide or benzo[d][1,3]oxathiole 3,3-dioxide and methods/uses thereof as agonists of g protein-coupled receptor 119” (PRAMANA PHARMACEUTICALS INC., priority 2016, dated 2021)
Like-named read-outs stand apart in the source and are kept apart here.

Biological target: T1, GPR119 (Homo sapiens, UniProt Q8TDV5)
T1 sequence (Q8TDV5 1-335): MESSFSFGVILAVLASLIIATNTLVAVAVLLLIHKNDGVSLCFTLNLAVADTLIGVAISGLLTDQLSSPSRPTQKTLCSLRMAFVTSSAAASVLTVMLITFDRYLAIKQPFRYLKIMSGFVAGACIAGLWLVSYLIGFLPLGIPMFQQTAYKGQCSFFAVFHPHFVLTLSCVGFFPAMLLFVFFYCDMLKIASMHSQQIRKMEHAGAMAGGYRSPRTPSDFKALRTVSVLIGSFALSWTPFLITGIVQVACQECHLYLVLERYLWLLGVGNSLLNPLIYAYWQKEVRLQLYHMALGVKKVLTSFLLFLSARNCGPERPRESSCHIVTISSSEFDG
Assay: LANCE Ultra cAMP assay: stimulation of GPR119-mediated cAMP production in CHO cells stably expressing human GPR119 receptor
Assay type: cell-based
Conditions: for Emax: CHO
Procedure: The potency of GPR119 receptor agonists was assessed by measuring the stimulation of GPR119-mediated cAMP production with LANCE Ultra cAMP assay (Perkin Elmer, TRF0264) in CHO cells stably expressing human GPR119 receptor (Chantest, cat. #A633). CHO-GPR119 cells were cultured in DMEM/F12 medium supplemented with 10% FBS and 1% NEAA at 37° C., 5% CO2, aliquoted and frozen in liquid nitrogen.
(§1) For assay, cells were thawed in a water bath at 37° C., washed in Hank's Balanced Salt Solution (HBSS) and resuspended in Stimulation Buffer 1 (SB1) for 30 min: 5 mM HEPES, pH 7.2-7.4, 0.1% BSA in HBSS. […] The ULight-anti-cAMP antibody (Perkin Elmer, TRF0264) was added to the cell suspension making Mix [Cell suspension/4× ULight-anti-cAMP antibodies]. […] The assay plate was centrifuged 200 g, 5 sec.
Serial dilution (100×) of tested compounds were prepared in DMSO in the range of from 30 nM to 1 mM with half-log step in 384-well plates (Greiner, 781280) using Biomek 2000. 10 test concentrations in two repeats were prepared for each CRC. […] The assay plate was incubated 30 minutes at room temperature on a shaker, 250 rpm to allow GPR119 receptor stimulation. The cAMP level was determined according to the standard kit supplier protocol (PerkinElmer, cat. #TRF0264).
(§2) The stock solution of the Eu-cAMP tracer (Perkin Elmer, TRF0264) was diluted 1:100 in cAMP Detection Buffer (Perkin Elmer, TRF0264), making 2× working concentration and added to the assay plate, 10 μL per well. Assay plate was centrifuged 180 g, 1 sec. Then the assay plate was incubated for 60′ at room temperature on shaker, 250 rpm to allow cAMP detection. The TR-FRET signal was measured at Ex-340 nm/Em-615 and Ex-340 nm/Em-665 nm on the reader Tecan M1000. 0% of cAMP stimulation corresponds to the cells with DMSO only, 100% of cAMP stimulation corresponds to the cells with 10 uM Forskolin. The EC50 value defined as the concentration of the drug that gives half-maximal response, were calculated using GraphPad Prizm 5.0 software with forskolin was used as references at each test. Entries 1-17 in Table A-2 show the biological activity of certain representative compounds using the protocol as described above.
as §1, with “cell suspension,” for “cell suspension”
as §2, with “1-14” for “1-17”, “B-2” for “A-2”

[1] = Table B-2 entries 15-39, modified protocol, 500 cells/well, read-out: % cAMP Max.
[2] = Table B-2 entries 15-39, modified protocol, 500 cells/well
[3] = Table B-2 entries 1-14, protocol as described (800 000 cells/mL, 5 uL/well), CHO-GPR119 cells
[4] = reference ligands in modified protocol, 500 cells/well
[5] = Table A-2 entries 1-17, protocol as described, 100% = 10 uM Forskolin, read-out: % cAMP Max. relative to forscolin
[6] = Table A-2 entries 1-17, protocol as described (800 000 cells/mL, 5 uL/well), CHO-GPR119 cells
[7] = Table A-2 entries 18-25, modified protocol, 500 cells/well, read-out: % cAMP Max. relative to forscolin
[8] = Table A-2 entries 18-25, modified protocol, 500 cells/well

EC50 [2] [nM]	Emax [5] [%]	EC50 [6] [nM]	Structure (SMILES)	further results
115			CCc1cnc(N2CC[C@@H](COc3ccc(-c4ccc5c(c4)OC[S@+]5[O-])cc3F)C2)nc1 [Example B-78]	Emax [1]: 72%
41			CC(C)c1cnc(N2CCC(COc3ccc(-c4ccc5c(c4)OC[S@+]5[O-])cc3F)CC2)nc1 [Example B-53, (R)-6-(3-fluoro-4-((1-(5-isopropylpyrimidin-2-yl)piperidin-4-yl)methoxy)phenyl)-2H-benzo[d][1,3]oxathiole 3-oxide]	Emax [1]: 74%
			Fc1cc(-c2ccc3c(c2)OCS3)ccc1OCC1CCN(c2ncc(Cl)cn2)CC1 [Example B-12]	EC50 [3]: 280 nM
> 10000			CCc1cnc(N2CC[C@@H](COc3ccc(-c4ccc5c(c4)OCS5)cc3F)C2)nc1 [Example B-69]	
			C=C[C@@]1(C)CC(=O)[C@]2(O)[C@@]3(C)[C@@H](O)CCC(C)(C)[C@@H]3[C@H](O)[C@H](OC(C)=O)[C@@]2(C)O1 [Forscolin, Forskolin, reference compound]	EC50 [4]: 28.5 nM; maximum cAMP stimulation [4]: 124%
	80	33.1	O=S1(=O)COc2cc(-c3cnc(OCC4CCN(c5ncc(Cl)cn5)CC4)nc3)ccc21 [A-29, 6-(2-((1-(5-Chloropyrimidin-2-yl)piperidin-4-yl)methoxy)pyrimidin-5-yl)-2H-benzo[d][1,3]oxathiole 3,3-dioxide]	
			CCc1cnc(N2CCC[C@H]2COc2ccc(-c3ccc4c(c3)OCS4(=O)=O)cc2F)nc1 [Example A-80]	Emax [7]: 25%; EC50 [8]: 1310 nM
43.5			[O-][S@+]1COc2cc(-c3cnc(OCC4CCN(c5ncc(Cl)cn5)CC4)nc3)ccc21 [Example B-62, (S)-6-(2-((1-(5-Chloropyrimidin-2-yl)piperidin-4-yl)methoxy)pyrimidin-5-yl)-2H-benzo[d][1,3]oxathiole 3-oxide]	Emax [1]: 66%
			O=S1(=O)COc2cc(-c3ccc(OC[C@H]4CCN(c5ncc(Cl)cn5)C4)c(F)c3)ccc21 [Example A-89, (S)-6-(4-((1-(5-Chloropyrimidin-2-yl)pyrrolidin-3-yl)methoxy)-3-fluorophenyl)-2H-benzo[d][1,3]oxathiole 3,3-dioxide]	Emax [7]: 93%; EC50 [8]: 46 nM
			CCc1cnc(N2CCC[C@@H]2COc2ccc(-c3ccc4c(c3)OCS4(=O)=O)cc2F)nc1 [Example A-71]	Emax [7]: 51%; EC50 [8]: 1690 nM
			CCc1ccnc(N2CCC(COc3ccc(-c4ccc5c(c4)OC[S+]5[O-])cc3F)CC2)n1 (centres unmarked) [Example B-25]	EC50 [3]: 31.8 nM
2.3			CCc1cnc(N2CCC(COc3ccc(-c4ccc5c(c4)OC[S@@+]5[O-])cc3F)CC2)nc1 [Example B-45, (S)-6-(4-((1-(5-Ethylpyrimidin-2-yl)piperidin-4-yl)methoxy)-3-fluorophenyl)-2H-benzo[d][1,3]oxathiole 3-oxide]	Emax [1]: 68%
40.6			COc1cnc(N2CCC(COc3ccc(-c4ccc5c(c4)OC[S@+]5[O-])cc3F)CC2)nc1 [Example B-51, (R)-6-(3-Fluoro-4-((1-(5-methoxypyrimidin-2-yl)piperidin-4-yl)methoxy)phenyl)-2H-benzo[d][1,3]oxathiole 3-oxide]	Emax [1]: 70%
	80	61.7	CC(C)(C)C(=O)N1CCC(COc2ccc(-c3ccc4c(c3)OCS4(=O)=O)cc2F)CC1 [A-15]	
	67	≥ 10000	NCC(=O)N1CCC(COc2ccc(-c3ccc4c(c3)OCS4(=O)=O)cc2F)CC1 [A-17]	
	80	67	O=S1(=O)COc2cc(-c3ccc(OCC4CN(c5ncc(Cl)cn5)C4)c(F)c3)ccc21 [A-48, 6-(4-((1-(5-Chloropyrimidin-2-yl)azetidin-3-yl)methoxy)-3-fluorophenyl)-2H-benzo[d][1,3]oxathiole 3,3-dioxide]	
			CC(C)CC(=O)N1CCC(COc2ccc(-c3ccc4c(c3)OC[S+]4[O-])cc2F)CC1 (centres unmarked) [Example B-23, 1-(4-((2-Fluoro-4-(3-oxido-2H-benzo[d][1,3]oxathiol-6-yl)phenoxy)methyl)-piperidin-1-yl)-3-methylbutane-1-one]	EC50 [3]: 46.2 nM
	70	≥ 10000	NC(=O)N1CCC(COc2ccc(-c3ccc4c(c3)OCS4(=O)=O)cc2F)CC1 [A-20]	
	77	86.4	CN(C)C(=O)N1CCC(COc2ccc(-c3ccc4c(c3)OCS4(=O)=O)cc2F)CC1 [A-14]	
32.5			CCc1cnc(N2CC[C@@H](COc3ccc(-c4ccc5c(c4)OC[S@@+]5[O-])cc3F)C2)nc1 [Example B-77]	Emax [1]: 81%
	81	24	CC(C)c1noc(N2CC(COc3ccc(-c4ccc5c(c4)OCS5(=O)=O)cc3F)C2)n1 [A-52, 6-(3-Fluoro-4-((1-(3-isopropyl-1,2,4-oxadiazol-5-yl)azetidin-3-yl)methoxy)phenyl)-2H-benzo[d][1,3]oxathiole 3,3-dioxide]	
			CC(C)c1cnc(N2CCC(COc3ccc(-c4ccc5c(c4)OCS5(=O)=O)cc3F)CC2)nc1 [Example A-66, 6-(3-Fluoro-4-(1-(5-isopropylpyrimidin-2-yl)piperidin-4-yl)methoxy)phenyl-2H-benzo[d][1,3]oxathiole 3,3-dioxide]	Emax [7]: 80%; EC50 [8]: 19.1 nM
			CCOc1cnc(N2CCC(COc3ccc(-c4ccc5c(c4)OC[S+]5[O-])cc3F)CC2)nc1 (centres unmarked) [Example B-27, 6-(4-((1-(5-Ethoxypyrimidin-2-yl)piperidin-4-yl)methoxy)-3-fluorophenyl)-2H-benzo[d][1,3]oxathiole 3-oxide]	EC50 [3]: 4.7 nM
365			CCc1cnc(N2CCC(COc3ccc(-c4ccc5c(c4)OCS5)cc3F)CC2)nc1 [Example B-37, 2-(4-((4-(Benzo[d][1,3]oxathiol-6-yl)-2-fluorophenoxy)methyl)piperidin-1-yl)-5-ethylpyrimidine]	Emax [1]: 79%
			CCc1cnc(N2CC[C@H](COc3ccc(-c4ccc5c(c4)OCS5(=O)=O)cc3F)C2)nc1 [Example A-86, (S)-6-(4-((1-(5-Ethylpyrimidin-2-yl)pyrrolidin-3-yl)methoxy)-3-fluorophenyl)-2H-benzo[d][1,3]oxathiole 3,3-dioxide]	Emax [7]: 96%; EC50 [8]: 166 nM

Structure (SMILES)	EC50 [2] [nM]	Emax [5] [%]	EC50 [6] [nM]	further results
O=S1(=O)COc2cc(-c3ccc(N4CCN(c5ncc(Cl)cn5)CC4)c(F)c3)ccc21 [Example A-65, 6-(4-(5-Chloropyrimidin-2-yl)piperazin-1-yl)-3-fluorophenyl-2H-benzo[d][1,3]oxathiole 3,3-dioxide]		84	112	
